We go through 1 compound from patent publication US8741922B2, “Solid forms of N-(4-(7-azabicyclo[2.2,1]heptan-7-yl)-2-trifluoromethyl)phenyl)-4-oxo-5-(trifluoromethyl)-1,4-dihydroquinoline-3-carboxamide” (Vertex Pharmaceuticals Incorporated, priority 2009, dated 2014).

In general, EC50 refers to the midpoint of the concentration-response curve.

The assay concerns the target T1, ΔF508-CFTR (Homo sapiens, UniProt P13569, DEL508-508).
T1 construct: expressed in transfected cells
The assay is described as follows: Membrane potential optical assay for ΔF508-CFTR potentiation (FLIPR III, voltage sensing dyes). The assay is classed as cell-based. Conditions: assay not explicitly tied to the value, ΔF508-CFTR NIH 3T3 cells. The text has this:
Assays for Detecting and Measuring ΔF508-CFTR Potentiation Properties of Compounds
Membrane Potential Optical Methods for Assaying ΔF508-CFTR Modulation Properties of Compounds
The assay utilizes fluorescent voltage sensing dyes to measure changes in membrane potential using a fluorescent plate reader (e.g., FLIPR III, Molecular Devices, Inc.) as a readout for increase in functional ΔF508-CFTR in NIH 3T3 cells. The driving force for the response is the creation of a chloride ion gradient in conjunction with channel activation by a single liquid addition step after the cells have previously been treated with compounds and subsequently loaded with a voltage sensing dye.
To identify potentiators of ΔF508-CFTR, a double-addition HTS assay format was developed. This HTS assay utilizes fluorescent voltage sensing dyes to measure changes in membrane potential on the FLIPR III as a measurement for increase in gating (conductance) of ΔF508 CFTR in temperature-corrected ΔF508 CFTR NIH 3T3 cells. The driving force for the response is a Cl^− ion gradient in conjunction with channel activation with forskolin in a single liquid addition step using a fluorescent plate reader such as FLIPR III after the cells have previously been treated with potentiator compounds (or DMSO vehicle control) and subsequently loaded with a redistribution dye. […]

T1 sequence (P13569 with tags, fused parts or gaps DEL508-508): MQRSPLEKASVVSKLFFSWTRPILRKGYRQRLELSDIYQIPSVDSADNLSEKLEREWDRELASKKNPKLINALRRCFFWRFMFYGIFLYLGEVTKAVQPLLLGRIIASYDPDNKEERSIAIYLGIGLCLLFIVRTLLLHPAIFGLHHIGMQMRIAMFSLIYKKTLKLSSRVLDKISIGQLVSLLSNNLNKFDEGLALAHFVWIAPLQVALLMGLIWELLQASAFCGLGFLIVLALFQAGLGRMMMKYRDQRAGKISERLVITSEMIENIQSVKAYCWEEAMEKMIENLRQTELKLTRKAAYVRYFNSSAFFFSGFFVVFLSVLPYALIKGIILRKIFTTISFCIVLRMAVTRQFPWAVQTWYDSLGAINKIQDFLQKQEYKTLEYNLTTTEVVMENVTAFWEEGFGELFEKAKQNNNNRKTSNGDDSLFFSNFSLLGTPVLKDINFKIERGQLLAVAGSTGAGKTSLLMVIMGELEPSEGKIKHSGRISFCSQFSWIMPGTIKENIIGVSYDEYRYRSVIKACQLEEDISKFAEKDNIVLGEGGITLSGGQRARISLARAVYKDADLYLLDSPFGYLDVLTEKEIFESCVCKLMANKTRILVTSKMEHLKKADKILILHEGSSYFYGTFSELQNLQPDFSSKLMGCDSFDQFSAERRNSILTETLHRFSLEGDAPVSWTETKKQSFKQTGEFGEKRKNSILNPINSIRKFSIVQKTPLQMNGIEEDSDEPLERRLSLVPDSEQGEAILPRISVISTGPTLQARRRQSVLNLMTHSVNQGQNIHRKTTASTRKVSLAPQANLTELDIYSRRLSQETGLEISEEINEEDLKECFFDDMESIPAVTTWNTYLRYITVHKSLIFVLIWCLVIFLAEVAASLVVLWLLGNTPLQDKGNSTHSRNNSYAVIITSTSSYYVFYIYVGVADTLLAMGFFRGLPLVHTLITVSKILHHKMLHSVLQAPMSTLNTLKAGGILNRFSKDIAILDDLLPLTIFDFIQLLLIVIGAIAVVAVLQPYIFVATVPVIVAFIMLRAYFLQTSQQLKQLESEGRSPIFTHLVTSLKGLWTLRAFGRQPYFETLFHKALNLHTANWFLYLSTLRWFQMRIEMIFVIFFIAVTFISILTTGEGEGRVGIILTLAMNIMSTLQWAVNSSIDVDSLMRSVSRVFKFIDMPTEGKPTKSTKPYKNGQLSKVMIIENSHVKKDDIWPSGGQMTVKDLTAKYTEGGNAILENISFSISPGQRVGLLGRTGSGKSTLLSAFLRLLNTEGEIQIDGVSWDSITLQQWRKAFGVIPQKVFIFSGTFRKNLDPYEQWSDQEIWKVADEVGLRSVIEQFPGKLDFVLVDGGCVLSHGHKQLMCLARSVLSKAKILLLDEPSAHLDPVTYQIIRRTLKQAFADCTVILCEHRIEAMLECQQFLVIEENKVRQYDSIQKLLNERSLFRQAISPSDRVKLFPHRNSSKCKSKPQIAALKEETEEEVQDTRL

On to `O=C(Nc1ccc(N2C3CCC2CC3)cc1C(F)(F)F)c1c[nH]c2cccc(C(F)(F)F)c2c1=O` [Compound I, Form A, N-(4-(7-azabicyclo[2.2.1]heptan-7-yl)-2-(trifluoromethyl)phenyl)-4-oxo-5-(trifluoromethyl)-1,4-dihydroquinoline-3-carboxamide], for which the EC50 was < 2 µM.
